# Like-named read-outs stand apart in the source and are kept apart here.
# Experiments:
# LmajNT1 [1] = assay: [3H]-uridine uptake by L. major promastigotes, low-affinity component; type: cell-based, Leishmania major; details: inhibition of 0.25 μM [3H]-uridine uptake
# Protocol: (§1) Using the standard uptake technique as described for T. brucei and Leishmania species ([Wallace et al., 2002], [Al-Salabi and De Koning, 2005], [Gudin et al., 2006]), the dose- or time-dependent uptake of radiolabeled permeants was investigated.
# (§2) Briefly, cells in the mid-to-late logarithmic stage of growth were harvested by centrifugation for 10 min at 1500×g. The cells were washed twice with transport assay buffer (AB: 33 mM HEPES, 98 mM NaCl, 4.6 mM KCl, 0.55 mM CaCl2, 0.07 mM MgSO4, 5.8 mM NaH2PO4, 0.3 mM MgCl2, 23 mM NaHCO3, 14 mM glucose, pH 7.3), resuspended at a density of 10^8 cells ml^−1 in AB, and left for 20–30 min at room temperature to recover from centrifugation stress. One hundred microliters of cell suspension was incubated at ambient temperature for a predetermined time with 100 μl radiolabeled test compound, in the presence or absence of unlabeled substrate or other competitive inhibitors. The incubation was terminated by the addition of ice-cold stop solution (AB containing saturating levels, usually 10 mM, of unlabeled permeant) and centrifugation through oil for 1 min at 13,000 × g. […] Radioactivity was determined by liquid scintillation counting in a Beckman LS6000 TA scintillation counter. Saturation data, inhibition data, and time courses were plotted to equations for linear or non-linear regression (hyperbolic or sigmoid curves), as appropriate. All experiments were performed in triplicate and on at least three independent occasions.
# L. major promastigotes = assay: total [3H]-uridine uptake by L. major promastigotes; type: cell-based, Leishmania major; details: Leishmania major
# Protocol: as §1, §2
# LmajUUT1 = assay: [3H]-uridine uptake by L. major promastigotes, high-affinity uracil-sensitive component; type: cell-based, Leishmania major; details: inhibition of 0.25 μM [3H]-uridine uptake
# Protocol: as §1, §2
# LmexNT1 [2] = type: cell-based, Leishmania mexicana; details: inhibition of 0.25 μM [3H]-uridine uptake in the presence of 1 mM uracil
# Protocol: as §1, §2
# LmexUU1 = type: cell-based, Leishmania mexicana; details: inhibition of [3H]-uracil uptake, 4 min
# Protocol: as §1, §2
# LmexNT1 [3] = assay: [3H]-adenosine uptake by L. mexicana promastigotes; type: cell-based, Leishmania mexicana
# Excerpt: Using the standard uptake technique as described for T. brucei and Leishmania species ([Wallace et al., 2002], [Al-Salabi and De Koning, 2005], [Gudin et al., 2006]), the dose- or time-dependent uptake of radiolabeled permeants was investigated. The following radiolabels and specific activities were used: [^3H]-thymidine (Perkin Elmer; 56.6 Ci/mmol); [^3H]-adenosine (American Radiolabeled Chemicals UK; 40 Ci/mmol); [^3H]-uridine (American Radiolabeled Chemicals UK; 30 Ci/mmol); [^3H]-uracil (Perkin Elmer; 24.8 Ci/mmol); [^3H]-inosine (American Radiolabeled Chemicals UK; 20 Ci/mmol); [^3H]-5-fluorouracil (Moravek; 20 Ci/mmol).
# as §2
# We next investigated the transport of [^3H]-adenosine in L. mexicana promastigotes, which according to the efficient inhibition of [^3H]-thymidine by adenosine, should be taken up with high affinity.
# LmajNT1 [4] = assay: [3H]-thymidine uptake by L. major promastigotes; type: cell-based, Leishmania major; details: for Ki: inhibition of 0.25 μM [3H]-thymidine uptake (total LmajNT1.1 + LmajNT1.2), 5 min
# Protocol: as §1, §2
# Subsequent experiments were performed with a 5 min incubation time.
# LmexNT1 [5] = type: cell-based, Leishmania mexicana; details: for rate of uptake: 1 μM [3H]-thymidine
# Protocol: as §1, §2
# L. donovani is known to express one pyrimidine nucleoside transporter, LdNT1, which also transports adenosine ([Vasudevan et al., 1998], [De Koning et al., 2005]). In order to investigate whether this model held true for L. mexicana, the uptake of [^3H]-thymidine was studied. […] Care was taken throughout this study that whenever inhibition constants (Ki) or Michaelis-Menten constants (Km) were determined the conditions used had been verified to be well within the linear range of uptake.
# T. b. brucei strain B48 [6] = assay: microbe, parasite or virus in culture; type: cell-based; details: Trypanosoma brucei, read-out: inhibition of 0.5 μM [3H]-uridine uptake, 250 μM inhibitor
# Protocol: as §1
# as §2, with “All experiments were performed in triplicate and on at least three independent occasions.” left out
# T. b. brucei strain B48 [7] = assay: [3H]-inosine uptake in non-transfected T. brucei B48; type: cell-based, Trypanosoma brucei brucei
# Protocol: as §1, §2
# LmajNT2 = assay: [3H]-inosine transport by T. brucei B48 cells expressing LmajNT2; type: cell-based, Leishmania major
# Protocol: (§3) Plasmid construction and transfection was performed according to [Munday et al. (2013)]. The nucleoside transporter genes were isolated from L. mexicana and L. major. […] The primers used in this study (Table S2) were designed to flank the gene of interest, one complementary to the sequence upstream of the 5′ end and the other complementary to the sequence downstream of the 3′ end. All of the nucleoside transporters genes were PCR-amplified from genomic DNA of each strain using the high-fidelity proof-reading polymerase Phusion (New England Biolabs) and cloned into the pGEMTeasy (Promega) vector prior to Sanger sequencing (Source BioScience, Glasgow, UK). […] After confirming the identity of each gene, the nucleoside transporter genes (LmajNT1A, LmajNT1B, LmajNT2, LmexNT1A, LmexNT1B, and LmexNT2) were ligated into the expression vector pHD1336 ([Biebinger et al., 1997]) and then were linearized with NotI digestion. All genes were verified by Sanger sequencing, prior to transfection into T. b. brucei clone B48. B48 parasites (1 × 10^7 cells) were washed into Human T Cell buffer for transfection using the desired cassette with an Amaxa Nucleofector using program X-001. Cells were transferred into pre-warmed HMI-9 medium and allowed to recover for 8–16 h at 37 °C and 5% CO2. Following recovery, transfectants were grown and cloned in selective medium containing 5 μg ml^−1 blasticidin S using limiting dilution.
# as §1
# (§4) Briefly, cells in the mid-to-late logarithmic stage of growth were harvested by centrifugation for 10 min at 1500×g. […] Radioactivity was determined by liquid scintillation counting in a Beckman LS6000 TA scintillation counter. […]
# LmexNT2 = assay: [3H]-inosine transport by T. brucei B48 cells expressing LmexNT2; type: cell-based, Leishmania mexicana
# Protocol: as §3, with “Cells were transferred into pre-warmed HMI-9 medium and allowed to recover for 8–16 h at 37 °C and 5% CO2. Following recovery, transfectants were grown and cloned in selective medium containing 5 μg ml^−1 blasticidin S using limiting dilution.” left out
# as §4
# [8] = inhibition of 0.05 μM [3H]-adenosine uptake, read-out: Ki
# [9] = 50 nM [3H]-inosine + 250 μM adenosine
compound,measurement,setting,value
Nc1ncnc2[nH]cnc12 [adenine],Ki,LmajNT1 [1],> 1000 µM
same,inhibition at 0.25 µM,"L. major promastigotes; 3 h, read-out: partial (maximal) inhibition of 0.25 μM [3H]-uridine transport",62.7 ± 1.7%
same,Ki,LmajUUT1,5.14 ± 2.25 µM
same,Ki,LmexNT1 [2],> 1000 µM
same,Ki,LmexUU1,288 ± 67 µM
same,Ki,LmexNT1 [3]; [8],> 1000 µM
same,Ki,LmajNT1 [4],> 1000 µM
O=c1[nH]cnc2c1ncn2[C@@H]1O[C@H](CO)[C@@H](O)[C@H]1O [inosine],Ki,"LmexNT1 [5]; inhibition of 1 μM [3H]-thymidine uptake, 20 s",640 ± 34 µM
same,inhibition at 250 µM,T. b. brucei strain B48 [6],24.3%
same,Ki,LmajNT1 [1],> 1000 µM
same,inhibition at 100 µM,"L. major promastigotes; 20 min, read-out: inhibition of 0.25 μM uridine transport in time course over 20 min, 100 μM inhibitor, n = 2",83.5%
same,inhibition at 100 µM,"L. major promastigotes; at 100 μM inhibitor, read-out: inhibition of 0.25 μM [3H]-uridine transport",70.8 ± 4.5%
same,rate of uptake,T. b. brucei strain B48 [7]; 50 nM [3H]-inosine,0.0049 ± 0.0002 pmol(10^7 cells)s^−1
same,inhibition of 50 nM [3H]-inosine transport,T. b. brucei strain B48 [7]; 250 μM adenosine or 1 mM unlabeled inosine (Fig. 7B),fully inhibited
same,Ki,LmajUUT1,0.5 ± 0.16 µM
same,uptake rate in the presence of adenosine,LmajNT2; [9],0.0023 ± 0.0001 pmol(10^7 cells)^−1s^−1
same,inhibition of 50 nM [3H]-inosine transport,LmajNT2; 1 mM inosine,99.8%
same,rate of transport in the presence of adenosine,LmexNT2; [9],0.0023 ± 0.0003 pmol(10^7 cells)^−1s^−1
same,inhibition of 50 nM [3H]-inosine transport,LmexNT2; 1 mM inosine,99.9%
same,Ki,LmexNT1 [2],1010 ± 190 µM
same,Ki,LmexNT1 [3]; [8],1630 ± 134 µM
same,Ki,"LmexNT1 [3]; inhibition of [3H]-adenosine uptake, read-out: affinity for inhibition of adenosine transport (Ki)",1600 ± 100 µM
same,Ki,LmajNT1 [4],1990 ± 3050 µM
Cc1cn([C@H]2C[C@H](O)[C@@H](CO)O2)c(=O)[nH]c1=O [thymidine],rate of uptake,LmexNT1 [5]; linear over 30 s (Fig. 1A),0.082 ± 0.005 pmol(10^7 cells)^−1s^−1
same,rate of uptake,LmexNT1 [5]; over 2 min (Fig. 1B),0.051 ± 0.002 pmol(10^7 cells)^−1s^−1
same,Vmax,LmexNT1 [5]; [3H]-thymidine,1.53 ± 0.28 pmol(10^7 cells)^−1s^−1
same,Km,"LmexNT1 [5]; [3H]-thymidine, n = 3",11.2 ± 2.4 µM
same,Ki,LmajNT1 [1],60.9 ± 8.4 µM
same,Ki,LmajUUT1,60.9 ± 8.4 µM
same,Ki,LmexNT1 [2],9.98 ± 2.67 µM
same,Ki,LmexNT1 [3]; [8],16.5 ± 0.4 µM
same,Vmax (1),"LmajNT1 [4]; [3H]-thymidine, high affinity component",0.023 ± 0.003 pmol(10^7 cells)^−1s^−1
same,Km,"LmajNT1 [4]; [3H]-thymidine, high affinity component, Lineweaver-Burke plot, n = 5, read-out: Km (1)",4.2 ± 1.09 µM
same,Vmax (2),"LmajNT1 [4]; [3H]-thymidine, lower affinity component",0.14 ± 0.03 pmol(10^7 cells)^−1s^−1
same,Km,"LmajNT1 [4]; n = 5, read-out: average Km from Michaelis-Menten saturation plots (single-component fit)",30.7 ± 2.1 µM
same,Km,"LmajNT1 [4]; single experiment shown in Fig. 5C, read-out: apparent Km, higher affinity component",1.26 µM
same,Km,"LmajNT1 [4]; single experiment shown in Fig. 5C, read-out: apparent Km, lower affinity component",17.1 µM

# Source: paper PMC5407577, “Functional and genetic evidence that nucleoside transport is highly conserved in Leishmania species: Implications for pyrimidine-based chemotherapy” (International Journal for Parasitology: Drugs and Drug …, 2017)
